Experimental data: US9694016B2 (Novartis AG, priority 2013, dated 2017)

biological target: b-Raf (V600E) (Homo sapiens (Human), UniProt P15056, V600E); settings: read-out: b-Raf IC-50; AlphaScreen, 60 min pre-incubation, 3 hours reaction
Sequence (P15056 whole entry V600E): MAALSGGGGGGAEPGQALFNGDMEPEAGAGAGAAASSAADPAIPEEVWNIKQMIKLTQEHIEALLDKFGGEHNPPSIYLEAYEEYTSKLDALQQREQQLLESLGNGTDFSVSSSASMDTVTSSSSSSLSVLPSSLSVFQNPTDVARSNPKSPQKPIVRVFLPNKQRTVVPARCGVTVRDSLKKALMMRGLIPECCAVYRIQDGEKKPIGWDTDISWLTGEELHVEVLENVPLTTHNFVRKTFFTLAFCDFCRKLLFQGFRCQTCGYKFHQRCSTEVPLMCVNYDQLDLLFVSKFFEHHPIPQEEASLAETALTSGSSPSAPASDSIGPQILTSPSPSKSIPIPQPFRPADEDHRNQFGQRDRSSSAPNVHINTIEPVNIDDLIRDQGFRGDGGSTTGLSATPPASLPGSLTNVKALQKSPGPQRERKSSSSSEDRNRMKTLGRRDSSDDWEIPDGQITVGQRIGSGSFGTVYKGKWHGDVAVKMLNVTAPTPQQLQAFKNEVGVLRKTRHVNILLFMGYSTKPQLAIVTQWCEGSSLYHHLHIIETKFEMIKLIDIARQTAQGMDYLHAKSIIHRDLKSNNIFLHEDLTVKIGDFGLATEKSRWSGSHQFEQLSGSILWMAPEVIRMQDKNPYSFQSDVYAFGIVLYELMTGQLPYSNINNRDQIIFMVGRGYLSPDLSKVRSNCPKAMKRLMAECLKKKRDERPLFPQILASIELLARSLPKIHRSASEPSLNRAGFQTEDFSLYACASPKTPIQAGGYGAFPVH

| IC50 | SMILES |
| --- | --- |
| 7.8 nM | Cc1ccc(NC(=O)c2ccnc(C(C)(C)C#N)c2)cc1-c1cc(N2CCOC(C)(C)C2)c(=O)n(C)n1 [Example 666, 2-(2-cyanopropan-2-yl)-N-(3-(5-(2,2-dimethylmorpholino)-1-methyl-6-oxo-1,6-dihydropyridazin-3-yl)-4-methylphenyl)isonicotinamide] |
| 5.4 nM | Cc1ccc(NC(=O)c2ccnc(C(C)(C)C#N)c2)cc1-c1cc(N2CCOCC2)c(=O)n(C)n1 [Example 640, 2-(2-cyanopropan-2-yl)-N-(4-methyl-3-(1-methyl-5-morpholino-6-oxo-1,6-dihydropyridazin-3-yl)phenyl)isonicotinamide] |
| 3 nM | CCNc1nc(-c2cc(NC(=O)c3ccnc(S(C)(=O)=O)c3)ccc2C)cc(N2CCOCC2)n1 [Example 702, N-(3-(2-(ethylamino)-6-morpholinopyrimidin-4-yl)-4-methylphenyl)-2-(methylsulfonyl)isonicotinamide] |
| 2.5 nM | CCNc1nc(-c2cc(NC(=O)c3ccnc(C(C)(C)C#N)c3)ccc2C)cc(N2CCOC[C@@H]2C)n1 [Example 714, (S)-2-(2-cyanopropan-2-yl)-N-(3-(2-(ethylamino)-6-(3-methylmorpholino)pyrimidin-4-yl)-4-methylphenyl)isonicotinamide] |
| 8.5 nM | CCNc1nc(-c2cc(NC(=O)c3cnnc(C4CC4)c3)cnc2C)cc(N2CCOCC2)n1 [Example 727, 6-cyclopropyl-N-(5-(2-(ethylamino)-6-morpholinopyrimidin-4-yl)-6-methylpyridin-3-yl)pyridazine-4-carboxamide] |
| 1.7 nM | CCNc1nc(-c2cc(NC(=O)c3cccc(-c4nnco4)c3)ccc2C)cc(N2CCOCC2)n1 [Example 699, N-(3-(2-(ethylamino)-6-morpholinopyrimidin-4-yl)-4-methylphenyl)-3-(1,3,4-oxadiazol-2-yl)benzamide] |
| 1.4 nM | Cc1ccc(NC(=O)c2ccnc(C(C)C)c2)cc1-c1cc(N2CCOCC2)nc(N(C)C)n1 [Example 757, N-(3-(2-(dimethylamino)-6-morpholinopyrimidin-4-yl)-4-methylphenyl)-2-isopropylisonicotinamide] |
| 8.1 nM | CCC(F)(F)c1cc(C(=O)Nc2cnc(C)c(-c3cc(N4CCOCC4)c(=O)n(C)n3)c2)ccn1 [Example 679, 2-(1,1-difluoropropyl)-N-(6-methyl-5-(1-methyl-5-morpholino-6-oxo-1,6-dihydropyridazin-3-yl)pyridin-3-yl)isonicotinamide] |
| 3.4 nM | CCOc1nc(-c2cc(NC(=O)c3ccnc(C(C)(C)C#N)c3)ccc2C)cc(N2CCOCC2)n1 [Example 764, 2-(2-cyanopropan-2-yl)-N-(3-(2-ethoxy-6-morpholinopyrimidin-4-yl)-4-methylphenyl)isonicotinamide] |
| 3.7 nM | Cc1ccc(NC(=O)c2ccnc(C(C)(F)F)c2)cc1-c1cc(N2CCOC[C@H]2C)n(C)c(=O)c1 [Example 523, (R)-2-(1,1-difluoroethyl)-N-(4-methyl-3-(1-methyl-6-(3-methylmorpholino)-2-oxo-1,2-dihydropyridin-4-yl)phenyl)isonicotinamide] |
| 1.2 nM | COc1nnc(-c2cc(NC(=O)c3cccc(S(C)(=O)=O)c3)ccc2C)cc1N1CCOCC1 [Example 553, N-(3-(6-methoxy-5-morpholinopyridazin-3-yl)-4-methylphenyl)-3-(methylsulfonyl)benzamide] |
| 2.1 nM | Cc1ccc(NC(=O)c2ccnc(C(C)(C)C)c2)cc1-c1cc(N2CCOCC2)n(C)c(=O)c1 [Example 472, 2-(tert-butyl)-N-(4-methyl-3-(1-methyl-6-morpholino-2-oxo-1,2-dihydropyridin-4-yl)phenyl)isonicotinamide] |
| 3.4 nM | Cc1ccc(NC(=O)c2ccnc(C(C)(C)C#N)c2)cc1-c1cc(N2CCOCC2)nc(NC2(CO)CCOCC2)n1 [Example 754, 2-(2-cyanopropan-2-yl)-N-(3-(2-((4-(hydroxymethyl)tetrahydro-2H-pyran-4-yl)amino)-6-morpholinopyrimidin-4-yl)-4-methylphenyl)isonicotinamide] |

same assay, conditions: read-out: b-Raf IC-50; AlphaScreen, 60 min pre-incubation, reaction 3 hours at room temperature

| IC50 | SMILES |
| --- | --- |
| 1.74 nM | Cc1ccc(NC(=O)c2ccnc(C(F)F)c2)cc1-c1cc(N2CCOCC2)nc(N2CC(C)(O)C2)c1 [Example 1072, 2-(difluoromethyl)-N-(3-(2-(3-hydroxy-3-methylazetidin-1-yl)-6-morpholinopyridin-4-yl)-4-methylphenyl)isonicotinamide] |
| 1110 nM | Cc1ncc(NC(=O)c2cccc(C(C)(C)S(C)(=O)=O)c2)cc1-c1cc(N2CCOCC2)nc(N2CC(O)C2)c1 [Example 1091, N-(2′-(3-hydroxyazetidin-1-yl)-2-methyl-6′-morpholino-[3,4′-bipyridin]-5-yl)-3-(2-(methylsulfonyl)propan-2-yl)benzamide] |
| 25000 nM | CC(F)(F)c1cc(C(=O)Nc2c[nH]c(=O)c(-c3ccnc(N4CCOCC4)c3)c2)ccn1 [Example 1171, 2-(1,1-difluoroethyl)-N-(2′-morpholino-2-oxo-1,2-dihydro-[3,4′-bipyridin]-5-yl)isonicotinamide] |
| 0.31 nM | Cc1ccc(NC(=O)c2cncc(C(F)(F)F)c2)cc1-c1cnc(OC(C)C)c(N2CCOCC2)c1 [Example 951, N-(3-(6-isopropoxy-5-morpholinopyridin-3-yl)-4-methylphenyl)-5-(trifluoromethyl)nicotinamide] |
| 7.73 nM | Cc1ncc(NC(=O)c2ccnc(C(F)(F)F)c2)cc1-c1cc(N2CCOCC2)c(S(C)(=O)=O)nn1 [Example 921, N-(6-methyl-5-(6-(methylsulfonyl)-5-morpholinopyridazin-3-yl)pyridin-3-yl)-2-(trifluoromethyl)isonicotinamide] |
| 68.4 nM | Cc1ncc(NC(=O)c2ccnc(C(C)(C)O)c2)cc1-c1cc(NCCO)nc(N2CCOCC2)c1 [Example 1046, N-(2′-((2-hydroxyethyl)amino)-2-methyl-6′-morpholino-[3,4′-bipyridin]-5-yl)-2-(2-hydroxypropan-2-yl)isonicotinamide] |
| 0.86 nM | Cc1ccc(NC(=O)c2ccnc(C(F)F)c2)cc1-c1cc(NCCO)nc(N2CCOCC2)c1 [Example 1053, 2-(difluoromethyl)-N-(3-(2-((2-hydroxyethyl)amino)-6-morpholinopyridin-4-yl)-4-methylphenyl)isonicotinamide] |
| 0.6 nM | Cc1ccc(NC(=O)c2ccnc(C(F)F)c2)cc1-c1cc(N2CCOCC2)nc(N2CC(O)C2)c1 [Example 1067, 2-(difluoromethyl)-N-(3-(2-(3-hydroxyazetidin-1-yl)-6-morpholinopyridin-4-yl)-4-methylphenyl)isonicotinamide] |
| 270 nM | Cc1ccc(NC(=O)[C@@H]2CCN[C@H](C(F)(F)F)C2)cc1-c1cc(C2COCCO2)nc(N2CCOCC2)c1 (stereo in doubt) [Example 1132, N-(3-(2-(1,4-dioxan-2-yl)-6-morpholinopyridin-4-yl)-4-methylphenyl)-2-(trifluoromethyl)piperidine-4-carboxamide] |
| 80 nM | Cc1cc(=O)c(C(=O)Nc2cccc(C(F)(F)F)c2)cn1-c1ccnc(N2CCOCC2)c1 [Example 1175, 6-methyl-2′-morpholino-4-oxo-N-(3-(trifluoromethyl)phenyl)-4H-[1,4′-bipyridine]-3-carboxamide] |

same assay, conditions: read-out: b-Raf IC-50; Table 2; AlphaScreen, 3 hours reaction

| IC50 | SMILES |
| --- | --- |
| 1.2 nM | CCc1cc(C(=O)Nc2ccc(C)c(-c3cc(N4CCOCC4)c(=O)n(C)c3)c2)ccn1 [Example 353, 2-ethyl-N-(4-methyl-3-(1-methyl-5-morpholino-6-oxo-1,6-dihydropyridin-3-yl)phenyl)isonicotinamide] |
| 15.6 nM | Cc1ncc(NC(=O)c2ccnc(C(C)(C)C#N)c2)cc1-c1cnc(Cl)c(N2CCOCC2)c1 [Example 289, N-(6′-chloro-2-methyl-5′-morpholino-[3,3-bipyridin]-5-yl)-2-(2-cyanopropan-2-yl)isonicotinamide] |
| 100 nM | COC(=O)NCCn1cc(-c2cc(NC(=O)c3cccc(C(F)(F)F)c3)cnc2C)cc(N2CCOCC2)c1=O [Example 193, methyl(2-(2′-methyl-5-morpholino-6-oxo-5′-(3-(trifluoromethyl)benzamido)-[3,3′-bipyridin]-1(6H)-yl)ethyl)carbamate] |
| 2.1 nM | Cc1ccc(NC(=O)c2cc(C(F)(F)F)ccn2)cc1-c1cc(N2CCOCC2)c(=O)n(C)c1 [Example 364, N-(4-methyl-3-(1-methyl-5-morpholino-6-oxo-1,6-dihydropyridin-3-yl)phenyl)-4-(trifluoromethyl)picolinamide] |
| 6 nM | COc1ncc(-c2cc(NC(=O)c3ccnc(C4(C#N)CC4)c3)cnc2C)cc1N1CCOCC1 [Example 283, 2-(1-cyanocyclopropyl)-N-(6′-methoxy-2-methyl-5-morpholino-[3,3′-bipyridin]-5-yl)isonicotinamide] |
| 50.4 nM | Cn1cc(-c2cc(C(=O)Nc3cccc(C(C)(C)O)c3)cnc2Cl)cc(N2CCOCC2)c1=O [Example 424, 2-chloro-N-(3-(2-hydroxypropan-2-yl)phenyl)-t-methyl-5′-morpholino-6′-oxo-1′,6′-dihydro-[3,3′-bipyridine]-5-carboxamide] |
| 900 nM | Cc1ncc(NC(=O)c2cc(C(F)(F)F)nn2C)cc1-c1cc(N2CCOCC2)c(=O)n(C)c1 [Example 382, N-(1′,2-dimethyl-5′-morpholino-6′-oxo-1′,6′-dihydro-[3,3′-bipyridin]-5-yl)-1-methyl-3-(trifluoromethyl)-1H-pyrazole-5-carboxamide] |
| 3.1 nM | Cn1cc(-c2cc(NC(=O)c3cccc(C(F)F)c3)ccc2F)cc(N2CCOCC2)c1=O [Example 417, 3-(difluoromethyl)-N-(4-fluoro-3-(1-methyl-5-morpholino-6-oxo-1,6-dihydropyridin-3-yl)phenyl)benzamide] |
| 2.7 nM | Cc1ncc(NC(=O)c2cccc(C(F)(F)F)c2)cc1-c1cnc(OC(F)F)c(N2CCOCC2)c1 [Example 224, N-(6′-(difluoromethoxy)-2-methyl-5′-morpholino-[3,3′-bipyridin]-5-yl)-3-(trifluoromethyl)benzamide] |
| 1.2 nM | CCOc1ncc(-c2cc(NC(=O)c3cccc(C(F)(F)F)c3)cnc2C)cc1N1CCOCC1 [Example 248, N-(6′-ethoxy-2-methyl-5′-morpholino-[3,3′-bipyridin]-5-yl)-3-(trifluoromethyl)benzamide] |
